Assay results from article PMC4446597, “Novel Adociaquinone Derivatives from the Indonesian Sponge Xestospongia sp” (Marine Drugs, 2015).
Structures can show the parent of a compound that is named as a salt.

Legend:
[1] = biological target: CDK1/cyclin B; test: Protein kinase assay, CDK1/cyclin B; assay type: biochemical; details: 15 µM ATP, 30 °C, triplicates
Experimental: (§1) Evaluation of the protein kinase inhibitory activity was performed in vitro as previously described. Briefly, homogenization buffer: 60 mM β-glycerophosphate, 15 mM p-nitrophenylphosphate, 25 mM Mops (pH 7.2), 15 mM EGTA, 15 mM MgCl2, 1 mM dithiothreitol, 1 mM sodium vanadate, 1 mM NaF, 1 mM phenylphosphate, 10 µg leupeptin mL^−1, 10 µg aprotinin mL^−1, 10 µg soybean trypsin inhibitor mL^−1, and 100 µg benzamidine. Buffer A: 10 mM MgCl2, 1 mM EGTA, 1 mM dithiothreitol, 25 mM Tris-HCl pH 7.5, 50 µg heparin mL^−1. Buffer C: homogenization buffer but 5 mM EGTA, no NaF and no protease inhibitors. Kinase activities were assayed in triplicates in buffer A or C at 30 °C, at a final ATP concentration of 15 µM. The order of mixing the reagents was: buffers, substrate, enzyme, inhibitor and ^33P-radiolabelled ATP. Isolated compounds were tested against a panel of eight kinases; namely cyclin-dependent kinase 1 (CDK1/cyclin B), cyclin-dependent kinase 2 (CDK2/cyclin A), cyclin-dependent kinase 5 (CDK5/p25), cyclin-dependent kinase 9 (CDK9/cyclin T), casein kinase 1 (CK1), Cdc2-like kinase 1 (CLK1), dual-specificity tyrosine-(Y)-phosphorylation regulated kinase 1A (DYRK1A) and glycogen synthase kinase-3α/β (GSK-3α/β).

[2] = biological target: CDK2/cyclin A (Homo sapiens, UniProt P24941); test: Protein kinase assay, CDK2/cyclin A; assay type: biochemical; details: 15 µM ATP, 30 °C, triplicates
Experimental: as §1

[3] = biological target: CDK5/p25 (Homo sapiens, UniProt Q00535); test: Protein kinase assay, CDK5/p25; assay type: biochemical; details: 15 µM ATP, 30 °C, triplicates
Experimental: as §1

[4] = biological target: CDK9/cyclin T (Homo sapiens, UniProt P50750); test: Protein kinase assay, CDK9/cyclin T; assay type: biochemical; details: 15 µM ATP, 30 °C, triplicates
Experimental: as §1

[5] = biological target: casein kinase 1 (CK1); test: Protein kinase assay, casein kinase 1; assay type: biochemical; details: 15 µM ATP, 30 °C, triplicates
Experimental: as §1

[6] = biological target: glycogen synthase kinase-3α/β (GSK-3α/β); test: Protein kinase assay, GSK-3α/β; assay type: biochemical; details: 15 µM ATP, 30 °C, triplicates, read-out: GSK3 IC50
Experimental: as §1

[7] = test system: topoisomerase II; set-up: method as in PMID 7473578; details: catalytic DNA unwinding and decatenation assays, KSDS assay; cited from earlier work
[8] = test system: Staphylococcus aureus ATCC 6538; test: Antibacterial assay, growth inhibition in liquid culture; assay type: cell-based; details: ATCC6538, S. aureus ATCC 6538, OD 620 nm after 16 to 18 h, read-out: antibacterial activity IC50 against Staphylococcus aureus
Experimental: The antibacterial activity assay was conducted on the bacterial strain Gram-positive Staphylococcus aureus ATCC 6538 and Gram-negative Escherichia coli ATCC 8739 evaluated in vitro by determining the IC50. A pre-culture of 5 mL LB (Luria Bertoni) medium was prepared by inoculating a colony of the bacterial strain and was incubated at 37 °C with stirring overnight. The concentration of the pre-culture was assessed by measuring the optical density OD at 620 nm and adjusted by dilution to obtain a suspension of 0.03 OD. The […] was determined by a liquid test in 96-well-plates. A quantity of 200 µL of the bacterial suspension was distributed in each well and 10 µL of the extracts, fractions or pure compounds solutions in DMSO (10, 5 and 2 mg/mL, respectively) were added in triplicate. The 96 well-plates were incubated at 30 °C for 16 to 18 h with shaking (450 rpm). The optical density of the wells was measured at 620 nm and the results were interpreted by calculating the percentage of growth inhibition in each well using the formula: % inhibition = 100 − (DOS − DOB)/(DOT − DOB) ×100 where T = bacterial suspension without test sample, B = culture medium without bacteria and S = bacterial suspension test sample. Ampicillin and chloramphenicol were used as positive control against S. aureus and E. coli, respectively.

[9] = biological target: DYRK1A (Rattus norvegicus, UniProt Q63470); test: Protein kinase assay, DYRK1A; assay type: biochemical
Experimental: as §1

[10] = biological target: human farnesyltransferase; set-up: method as in PMID 20634081; details: read-out: IC50 against human farnesyltransferase; cited from earlier work
[11] = biological target: yeast farnesyltransferase; set-up: method as in PMID 20634081; details: read-out: IC50 against yeast farnesyltransferase; cited from earlier work

Chain of CDK5/p25 (Q00535 whole entry, species assumed): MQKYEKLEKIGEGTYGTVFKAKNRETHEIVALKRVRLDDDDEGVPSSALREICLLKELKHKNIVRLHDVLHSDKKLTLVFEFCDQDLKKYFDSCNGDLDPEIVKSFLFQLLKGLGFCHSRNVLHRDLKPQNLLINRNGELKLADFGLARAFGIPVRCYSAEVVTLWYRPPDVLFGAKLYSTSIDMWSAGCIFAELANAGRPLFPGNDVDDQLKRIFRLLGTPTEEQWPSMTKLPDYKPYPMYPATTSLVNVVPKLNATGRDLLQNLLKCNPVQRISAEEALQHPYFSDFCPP
Chain of CDK5/p25 (Q15078 99-307 partner limits assumed, species assumed): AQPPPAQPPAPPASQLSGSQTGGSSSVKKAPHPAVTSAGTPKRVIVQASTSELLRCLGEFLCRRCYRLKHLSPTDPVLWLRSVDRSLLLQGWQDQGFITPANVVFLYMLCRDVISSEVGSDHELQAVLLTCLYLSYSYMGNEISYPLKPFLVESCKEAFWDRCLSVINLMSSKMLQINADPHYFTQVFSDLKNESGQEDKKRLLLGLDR
Chain of CDK9/cyclin T (P50750 whole entry, species assumed): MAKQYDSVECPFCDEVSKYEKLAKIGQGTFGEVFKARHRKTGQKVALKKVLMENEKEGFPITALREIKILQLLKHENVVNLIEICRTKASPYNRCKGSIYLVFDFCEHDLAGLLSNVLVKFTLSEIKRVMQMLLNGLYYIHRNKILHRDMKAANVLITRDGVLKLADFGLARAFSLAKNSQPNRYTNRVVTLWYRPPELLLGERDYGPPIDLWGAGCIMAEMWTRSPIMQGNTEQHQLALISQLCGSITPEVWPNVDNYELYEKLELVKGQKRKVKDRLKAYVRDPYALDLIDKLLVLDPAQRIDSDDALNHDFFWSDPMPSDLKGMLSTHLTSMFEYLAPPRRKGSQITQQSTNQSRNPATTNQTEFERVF
Chain of CDK9/cyclin T (O60563 whole entry partner, species assumed): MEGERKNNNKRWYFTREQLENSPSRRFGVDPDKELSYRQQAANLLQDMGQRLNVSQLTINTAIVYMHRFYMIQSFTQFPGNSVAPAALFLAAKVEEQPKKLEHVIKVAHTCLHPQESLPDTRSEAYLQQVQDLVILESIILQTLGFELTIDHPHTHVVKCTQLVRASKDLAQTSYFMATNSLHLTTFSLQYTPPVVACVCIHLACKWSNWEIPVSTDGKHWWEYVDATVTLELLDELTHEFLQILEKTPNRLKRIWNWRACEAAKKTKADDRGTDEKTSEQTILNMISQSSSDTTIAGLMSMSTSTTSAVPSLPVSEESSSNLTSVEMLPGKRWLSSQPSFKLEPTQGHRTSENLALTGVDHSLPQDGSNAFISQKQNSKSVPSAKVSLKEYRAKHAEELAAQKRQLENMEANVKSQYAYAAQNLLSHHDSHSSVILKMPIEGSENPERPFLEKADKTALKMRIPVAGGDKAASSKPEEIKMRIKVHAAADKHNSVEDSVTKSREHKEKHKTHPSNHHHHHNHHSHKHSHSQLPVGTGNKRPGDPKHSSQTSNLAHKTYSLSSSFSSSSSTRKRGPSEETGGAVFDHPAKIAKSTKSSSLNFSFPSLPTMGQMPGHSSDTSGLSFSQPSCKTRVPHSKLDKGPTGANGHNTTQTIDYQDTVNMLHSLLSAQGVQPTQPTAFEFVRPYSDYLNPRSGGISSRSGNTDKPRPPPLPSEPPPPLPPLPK

Row | Compound | IC50 [1] | IC50 [2] | IC50 [3] | IC50 [4] | IC50 [5] | IC50 [6] | inhibition of topoisomerase II (in words) [7] | IC50 [8] | activity against DYRK1A (in words) [9] | IC50 [10] | IC50 [11]
1 | C[C@@]12CCCc3coc(c31)C(=O)c1cc3c(cc12)C(=O)C1=C(NCCS1(=O)=O)C3=O [Compound 6, adociaquinone B] | > 10 µM | > 10 µM | > 10 µM | 3 µM | > 10 µM | > 10 µM | inhibition of topoisomerase II | – | – | – | –
2 | C[C@@]12CCCc3coc(c31)C(=O)c1cc3c(cc12)C(=O)C=C(NCCS(=O)(=O)O)C3=O [Compound 8, secoadociaquinone B] | > 10 µM | > 10 µM | 6 µM | > 10 µM | > 10 µM | > 10 µM | – | – | – | – | –
3 | C[C@@]12CCCc3coc(c31)C(=O)c1cc3c(O)ccc(OS(=O)(=O)O)c3cc12 [Compound 11, xestoquinol sulfate] | – | – | – | – | – | – | – | 125 µM | – | – | –
4 | C[C@@]12CCC(=O)c3coc(c31)C(=O)c1cc3c(O)ccc(OS(=O)(=O)O)c3cc12 [Compound 12] | 4.3 µM | 7.5 µM | 2.2 µM | 0.5 µM | 5.2 µM | 0.61 µM | – | – | – | – | –
5 | CO[C@]12OC(O)C3=C1[C@@](C)(CCC3=O)c1cc3c(OS(=O)(=O)O)ccc(O)c3cc1C2=O (stereo partly drawn) [Compound 13] | > 10 µM | > 10 µM | > 10 µM | > 10 µM | > 10 µM | > 10 µM | – | – | marginal activity | – | –
6 | CC1=CCCC2(C)C1=C(O)C(=O)c1cc3c(cc12)C(=O)C=CC3=O (stereo not drawn) [Orhalquinone] | – | – | – | – | – | – | – | – | – | 0.4 µM | 0.4 µM
7 | adociaquinone A [Compound 5] | – | – | – | – | – | – | inhibition of topoisomerase II | – | – | – | –
